Laboratory results as given in BindingDB's records for doi:10.1016/j.bmcl.2010.03.092 (Takeda California, 2010).

Target: Histone deacetylase 2 (Homo sapiens) (UniProt Q92769)
Assay: Inhibition of human recombinant HDAC2

Histone deacetylase 2 (Homo sapiens), sequence (Q92769 whole entry, looked up): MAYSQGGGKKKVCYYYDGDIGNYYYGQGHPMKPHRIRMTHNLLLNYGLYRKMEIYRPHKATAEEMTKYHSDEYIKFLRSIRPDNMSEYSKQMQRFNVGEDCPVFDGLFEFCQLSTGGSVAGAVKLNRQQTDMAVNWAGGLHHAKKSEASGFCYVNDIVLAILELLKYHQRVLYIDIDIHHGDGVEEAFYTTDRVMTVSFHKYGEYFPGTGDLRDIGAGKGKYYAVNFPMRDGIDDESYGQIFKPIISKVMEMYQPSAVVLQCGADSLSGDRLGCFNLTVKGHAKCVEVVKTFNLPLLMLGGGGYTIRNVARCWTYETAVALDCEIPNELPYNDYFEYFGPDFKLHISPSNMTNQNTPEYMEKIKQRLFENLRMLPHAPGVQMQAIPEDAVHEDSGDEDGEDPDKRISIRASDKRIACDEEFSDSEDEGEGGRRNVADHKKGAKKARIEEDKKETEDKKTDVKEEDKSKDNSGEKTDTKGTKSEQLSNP

SMILES | IC50
CCN1CCCC(n2c(-c3cccc(/C=C/C(=O)NO)c3)nc3ccccc32)C1 (racemic) [(+/-)-3-(3-(1-(1-ethylpiperidin-3-yl)-1H-benzo[d]imidazol-2-yl)phenyl)-N-hydroxyacrylamide] | 20 nM
CCN(CC)CCn1c(-c2cccc(/C=C/C(=O)NO)c2)nc2ccccc21 [3-(3-(1-(2-(diethylamino)ethyl)-1H-benzo[d]imidazol-2-yl)phenyl)-N-hydroxyacrylamide] | 31 nM
CC(C)N(CCn1c(-c2cccc(/C=C/C(=O)NO)c2)nc2ccccc21)C(C)C [3-(3-(1-(2-(diisopropylamino)ethyl)-1H-benzo[d]imidazol-2-yl)phenyl)-N-hydroxyacrylamide] | 40 nM
CN(C)CCn1c(-c2cccc(/C=C/C(=O)NO)c2)nc2ccccc21 [3-(3-(1-(2-(dimethylamino)ethyl)-1H-benzo[d]imidazol-2-yl)phenyl)-N-hydroxyacrylamide] | 63 nM
O=C(/C=C/c1cccc(-c2nc3ccccc3n2Cc2ccccc2)c1)NO [3-(3-(1-benzyl-1H-benzo[d]imidazol-2-yl)phenyl)-N-hydroxyacrylamide] | 50 nM
O=C(/C=C/c1cccc(-c2nc3ccccc3[nH]2)c1)NO [3-(3-(1H-benzo[d]imidazol-2-yl)phenyl)-N-hydroxyacrylamide] | 100 nM
Cc1nc(C)n(CCc2ccccc2)c1-c1cccc(/C=C/C(=O)NO)c1 [3-(3-(2,4-dimethyl-1-phenethyl-1H-imidazol-5-yl)phenyl)-N-hydroxyacrylamide] | 79 nM
Cc1nc(Cc2ccccc2)n(CCc2ccccc2)c1-c1cccc(/C=C/C(=O)NO)c1 [3-(3-(2-benzyl-4-methyl-1-phenethyl-1H-imidazol-5-yl)phenyl)-N-hydroxyacrylamide] | 40 nM
Cc1nc(-c2cccc(/C=C/C(=O)NO)c2)n(CCN2CCOCC2)c1C [3-(3-(4,5-dimethyl-1-(2-morpholinoethyl)-1H-imidazol-2-yl)phenyl)-N-hydroxyacrylamide] | 31 nM
Cc1nc(-c2cccc(/C=C/C(=O)NO)c2)n(CCc2ccccc2)c1C [3-(3-(4,5-dimethyl-1-phenethyl-1H-imidazol-2-yl)phenyl)-N-hydroxyacrylamide] | 7.9 nM
Cc1c(Cc2ccccc2)nc(-c2cccc(/C=C/C(=O)NO)c2)n1CCN1CCOCC1 [3-(3-(4-benzyl-5-methyl-1-(2-morpholinoethyl)-1H-imidazol-2-yl)phenyl)-N-hydroxyacrylamide] | 12 nM
Cc1c(Cc2ccccc2)nc(-c2cccc(/C=C/C(=O)NO)c2)n1CCc1ccccc1 [3-(3-(4-benzyl-5-methyl-1-phenethyl-1H-imidazol-2-yl)phenyl)-N-hydroxyacrylamide] | 7.9 nM
Cc1nc(-c2cccc(/C=C/C(=O)NO)c2)n(CCN2CCOCC2)c1Cc1ccccc1 [3-(3-(5-benzyl-4-methyl-1-(2-morpholinoethyl)-1H-imidazol-2-yl)phenyl)-N-hydroxyacrylamide] | 10 nM
Cc1nc(-c2cccc(/C=C/C(=O)NO)c2)n(CCc2ccccc2)c1Cc1ccccc1 [3-(3-(5-benzyl-4-methyl-1-phenethyl-1H-imidazol-2-yl)phenyl)-N-hydroxyacrylamide] | 5 nM
CCN1CCC[C@@H](n2c(-c3cccc(/C=C/C(=O)NO)c3)nc3ccccc32)C1 [(R)-3-(3-(1-(1-ethylpiperidin-3-yl)-1H-benzo[d]imidazol-2-yl)phenyl)-N-hydroxyacrylamide] | 10 nM
CCN1CCC[C@@H](n2c(-c3cccc(/C=C/C(=O)NO)c3)nc(C)c2C)C1 [(R)-3-(3-(1-(1-ethylpiperidin-3-yl)-4,5-dimethyl-1H-imidazol-2-yl)phenyl)-N-hydroxyacrylamide] | 12 nM
CCN1CCC[C@@H](n2c(-c3cccc(/C=C/C(=O)NO)c3)nc(C)c2-c2ccccc2)C1 [(R)-3-(3-(1-(1-ethylpiperidin-3-yl)-4-methyl-5-phenyl-1H-imidazol-2-yl)phenyl)-N-hydroxyacrylamide] | 7.9 nM
CCN1CCC[C@@H](n2c(Cc3ccccc3)nc(C)c2-c2cccc(/C=C/C(=O)NO)c2)C1 [(R)-3-(3-(2-benzyl-1-(1-ethylpiperidin-3-yl)-4-methyl-1H-imidazol-5-yl)phenyl)-N-hydroxyacrylamide] | 120 nM
CCN1CCC[C@@H](n2c(-c3cccc(/C=C/C(=O)NO)c3)nc(Cc3ccccc3)c2C)C1 [(R)-3-(3-(4-benzyl-1-(1-ethylpiperidin-3-yl)-5-methyl-1H-imidazol-2-yl)phenyl)-N-hydroxyacrylamide] | 10 nM
Cc1c(Cc2ccccc2)nc(-c2cccc(/C=C/C(=O)NO)c2)n1[C@@H]1CCCN(C)C1 [(R)-3-(3-(4-benzyl-5-methyl-1-(1-methylpiperidin-3-yl)-1H-imidazol-2-yl)phenyl)-N-hydroxyacrylamide] | 6.3 nM
Cc1nc(-c2cccc(/C=C/C(=O)NO)c2)n([C@@H]2CCCN(C(C)C)C2)c1-c1ccccc1 [(R)-N-hydroxy-3-(3-(1-(1-isopropylpiperidin-3-yl)-4-methyl-5-phenyl-1H-imidazol-2-yl)phenyl)acrylamide] | 6.3 nM

SMILES | IC50
Cc1c(-c2ccccc2)nc(-c2cccc(/C=C/C(=O)NO)c2)n1[C@@H]1CCCN(C(C)C)C1 [(R)-N-hydroxy-3-(3-(1-(1-isopropylpiperidin-3-yl)-5-methyl-4-phenyl-1H-imidazol-2-yl)phenyl)acrylamide] | 5 nM
CN1CCC[C@@H](n2c(-c3cccc(/C=C/C(=O)NO)c3)nc3ccccc32)C1 [(R)-N-hydroxy-3-(3-(1-(1-methylpiperidin-3-yl)-1H-benzo[d]imidazol-2-yl)phenyl)acrylamide] | 10 nM
C[C@H](c1ccccc1)n1c(-c2cccc(/C=C/C(=O)NO)c2)nc2ccccc21 [(R)-N-hydroxy-3-(3-(1-(1-phenylethyl)-1H-benzo[d]imidazol-2-yl)phenyl)acrylamide] | 25 nM
O=C(/C=C/c1cccc(-c2nc3ccccc3n2[C@@H]2CCCNC2)c1)NO [(R)-N-hydroxy-3-(3-(1-(piperidin-3-yl)-1H-benzo[d]imidazol-2-yl)phenyl)acrylamide] | 12 nM
Cc1nc(-c2cccc(/C=C/C(=O)NO)c2)n([C@@H]2CCCN(C)C2)c1-c1ccccc1 [(R)-N-hydroxy-3-(3-(4-methyl-1-(1-methylpiperidin-3-yl)-5-phenyl-1H-imidazol-2-yl)phenyl)acrylamide] | 10 nM
Cc1c(-c2ccccc2)nc(-c2cccc(/C=C/C(=O)NO)c2)n1[C@@H]1CCCN(C)C1 [(R)-N-hydroxy-3-(3-(5-methyl-1-(1-methylpiperidin-3-yl)-4-phenyl-1H-imidazol-2-yl)phenyl)acrylamide] | 5 nM
CCN1CCC[C@H](n2c(-c3cccc(/C=C/C(=O)NO)c3)nc3ccccc32)C1 [(S)-3-(3-(1-(1-ethylpiperidin-3-yl)-1H-benzo[d]imidazol-2-yl)phenyl)-N-hydroxyacrylamide] | 31 nM
O=C(/C=C/c1cccc(-c2nc3ccccc3n2CCN2CCCCC2)c1)NO [N-hydroxy-3-(3-(1-(2-(piperidin-1-yl)ethyl)-1H-benzo[d]imidazol-2-yl)phenyl)acrylamide] | 10 nM
O=C(/C=C/c1cccc(-c2nc3ccccc3n2CCN2CCCC2)c1)NO [N-hydroxy-3-(3-(1-(2-(pyrrolidin-1-yl)ethyl)-1H-benzo[d]imidazol-2-yl)phenyl)acrylamide] | 16 nM
O=C(/C=C/c1cccc(-c2nc3ccccc3n2CCN2CCOCC2)c1)NO [N-hydroxy-3-(3-(1-(2-morpholinoethyl)-1H-benzo[d]imidazol-2-yl)phenyl)acrylamide] | 50 nM
O=C(/C=C/c1cccc(-c2nc3ccccc3n2CCCc2ccccc2)c1)NO [N-hydroxy-3-(3-(1-(3-phenylpropyl)-1H-benzo[d]imidazol-2-yl)phenyl)acrylamide] | 12 nM
COc1ccc(-n2c(-c3cccc(/C=C/C(=O)NO)c3)nc3ccccc32)cc1 [N-hydroxy-3-(3-(1-(4-methoxyphenyl)-1H-benzo[d]imidazol-2-yl)phenyl)acrylamide] | 40 nM
O=C(/C=C/c1cccc(-c2nc3ccccc3n2CC2CCNCC2)c1)NO [N-hydroxy-3-(3-(1-(piperidin-4-ylmethyl)-1H-benzo[d]imidazol-2-yl)phenyl)acrylamide] | 160 nM
CC(C)n1c(-c2cccc(/C=C/C(=O)NO)c2)nc2ccccc21 [N-hydroxy-3-(3-(1-isopropyl-1H-benzo[d]imidazol-2-yl)phenyl)acrylamide] | 79 nM
Cn1c(-c2cccc(/C=C/C(=O)NO)c2)nc2ccccc21 [N-hydroxy-3-(3-(1-methyl-1H-benzo[d]imidazol-2-yl)phenyl)acrylamide] | 120 nM
O=C(/C=C/c1cccc(-c2nc3ccccc3n2CCc2ccccc2)c1)NO [N-hydroxy-3-(3-(1-phenethyl-1H-benzo[d]imidazol-2-yl)phenyl)acrylamide] | 7.9 nM
O=C(/C=C/c1cccc(-c2nc3ccccc3n2-c2ccccc2)c1)NO [N-hydroxy-3-(3-(1-phenyl-1H-benzo[d]imidazol-2-yl)phenyl)acrylamide] | 63 nM
Cc1nc(-c2cccc(/C=C/C(=O)NO)c2)n(CCN2CCOCC2)c1-c1ccccc1 [N-hydroxy-3-(3-(4-methyl-1-(2-morpholinoethyl)-5-phenyl-1H-imidazol-2-yl)phenyl)acrylamide] | 31 nM
Cc1nc(-c2cccc(/C=C/C(=O)NO)c2)n(CCc2ccccc2)c1-c1ccccc1 [N-hydroxy-3-(3-(4-methyl-1-phenethyl-5-phenyl-1H-imidazol-2-yl)phenyl)acrylamide] | 7.9 nM
Cc1c(-c2ccccc2)nc(-c2cccc(/C=C/C(=O)NO)c2)n1CCN1CCOCC1 [N-hydroxy-3-(3-(5-methyl-1-(2-morpholinoethyl)-4-phenyl-1H-imidazol-2-yl)phenyl)acrylamide] | 10 nM
Cc1c(-c2ccccc2)nc(-c2cccc(/C=C/C(=O)NO)c2)n1CCc1ccccc1 [N-hydroxy-3-(3-(5-methyl-1-phenethyl-4-phenyl-1H-imidazol-2-yl)phenyl)acrylamide] | 5 nM
